In patent publication US9212170B2, “4-alkanoylamino-3-pyrazolone derivative” (Daiichi Sankyo Company, Limited, priority 2012, dated 2015):
Counter-ions that a name gives are not always drawn.

System: human liver cancer-derived cell line Hep3B
Experiment: In vitro erythropoietin (EPO) induction activity in Hep3B cells (human EPO ELISA of culture supernatant)
Format: cell-based
Details: test compound 12.5 μM in 0.5% DMSO, 32 hours at 37° C., EPO in culture supernatant expressed as a multiple of the control (0.5% DMSO = 1), read-out: EPO concentration (multiple)
Protocol: In vitro erythropoietin (EPO) induction activity of test compounds was evaluated using human liver cancer-derived cell line Hep3B (ATCC, Manassas, Va.). Hep3B cells were cultured overnight at 37° C. in Dulbecco's modified Eagle's medium (DMEM) in the presence of 10% fetal bovine serum (FBS) (24-well plate, 1.0×10^5 cells/well). After replacing with fresh DMEM (+10% FBS) containing a test compound dissolved in 0.5% dimethyl sulfoxide (DMSO) (prepared to a concentration of 12.5 μM) or a solvent control (0.5% DMSO), the cells were cultured for 32 hours at 37° C. After recovering the culture supernatant, EPO concentration in the culture supernatant was quantified using human EPO ELISA kits (StemCell Technologies). The EPO concentration obtained using each test compound was expressed as a multiple of the EPO concentration obtained using the control.

| Compound | fold induction at 12.5 µM |
| --- | --- |
| CC(=O)Nc1c[nH]n(-c2cc(NCCc3ccccc3)ncn2)c1=O [Example 9, N-(3-Oxo-2-{6-[(2-phenylethyl)amino]pyrimidin-4-yl}-2,3-dihydro-1H-pyrazol-4-yl)acetamide] | 6.1 |
| CC(=O)Nc1c[nH]n(-c2ccc(COCc3ccc(-c4ccccc4)cc3)cn2)c1=O [Example 14, N-(2-{5-[(Biphenyl-4-ylmethoxy)methyl]pyridin-2-yl}-3-oxo-2,3-dihydro-1H-pyrazol-4-yl)acetamide] | 22 |
| Cc1[nH]n(-c2ccc(C(=O)Nc3ccc(-c4ccccc4)nc3)cn2)c(=O)c1NC(=O)CCC(=O)O [Example 23, 4-[(5-Methyl-3-oxo-2-{5-[(6-phenylpyridyl-3-yl)carbamoyl]pyridin-2-yl}-2,3-dihydro-1H-pyrazol-4-yl)amino]-4-oxobutanoic acid] | 2.7 |
| CC(=O)Nc1c[nH]n(-c2cc(COCc3ccccc3)ccn2)c1=O [Example 10, N-(2-{4-[(Benzyloxy)methyl]pyridin-2-yl}-3-oxo-2,3-dihydro-1H-pyrazol-4-yl)acetamide] | 23 |
| CC(=O)Nc1c(C)[nH]n(-c2ccc(Cc3ccc(C(F)(F)F)cc3)cn2)c1=O [Example 25, N-(5-Methyl-3-oxo-2-{5-[4-(trifluoromethyl)benzyl]pyridin-2-yl}-2,3-dihydro-1H-pyrazol-4-yl)acetamide] | 16 |
| CC(=O)Nc1c[nH]n(-c2ccc(COCc3ccccc3)cn2)c1=O [Example 8, N-(2-{5-[(Benzyloxy)methyl]pyridin-2-yl}-3-oxo-2,3-dihydro-1H-pyrazol-4-yl)acetamide] | 26 |
| CC(=O)Nc1c(C)[nH]n(-c2ccc(/C=C/c3ccc(C(F)(F)F)cc3)cn2)c1=O [Example 27, N-[5-Methyl-3-oxo-2-(5-{(E)-2-[4-(trifluoromethyl)phenyl]ethenyl}pyridin-2-yl)-2,3-dihydro-1H-pyrazol-4-yl]acetamide] | 2.7 |
| CC(=O)Nc1c[nH]n(-c2ccc(COCc3ccc(-c4ccccc4C#N)cc3)cn2)c1=O [Example 13, N-[2-(5-{[(2′-Cyanobiphenyl-4-yl)methoxy]methyl}pyridin-2-yl)-3-oxo-2,3-dihydro-1H-pyrazol-4-yl]acetamide] | 29 |
| CC(=O)Nc1c[nH]n(-c2ccc(C(=O)Nc3ccc(Cl)cc3)cn2)c1=O [Example 5, 6-(4-Acetamido-5-oxo-2,5-dihydro-1H-pyrazol-1-yl)-N-(4-chlorophenyl)nicotinamide] | 12 |
| CC(=O)Nc1c(C)[nH]n(-c2ccc(C(=O)Nc3ccc(-c4ccccc4)nc3)cn2)c1=O [Example 20, 6-(4-Acetamido-3-methyl-5-oxo-2,5-dihydro-1H-pyrazol-1-yl)-N-(6-phenylpyridin-3-yl)nicotinamide] | 3.7 |
| Cc1[nH]n(-c2ccc(C(=O)Nc3ccc(-c4ccccc4)nc3)cn2)c(=O)c1NC(=O)CCC(=O)OC(C)(C)C [Example 22, Tert-butyl 4-[(5-methyl-3-oxo-2-{5-[(6-phenylpyridyl-3-yl)carbamoyl]pyridin-2-yl}-2,3-dihydro-1H-pyrazol-4-yl)amino]-4-oxobutanoate] | 1.9 |
| CC(=O)Nc1c(C)[nH]n(-c2ccc(C(=O)Nc3ccc(Cl)cc3)cn2)c1=O [Example 17, 6-(4-Acetamido-3-methyl-5-oxo-2,5-dihydro-1H-pyrazol-1-yl)-N-(4-chlorophenyl)nicotinamide] | 4.3 |
| CC(=O)Nc1c[nH]n(-c2ccc(C(=O)Nc3ccc(C4CCCCC4)cc3)cn2)c1=O [Example 1, 6-(4-Acetamido-5-oxo-2,5-dihydro-1H-pyrazol-1-yl)-N-(4-cyclohexylphenyl)nicotinamide] | 37 |
| CC(=O)Nc1c(C)[nH]n(-c2ccc(C(=O)Nc3ccc(C(C)(C)C)cc3)cn2)c1=O [Example 19, 6-(4-Acetamido-3-methyl-5-oxo-2,5-dihydro-1H-pyrazol-1-yl)-N-(4-tert-butylphenyl)nicotinamide] | 13 |
| CC(=O)Nc1c[nH]n(-c2ccc(C(=O)NCc3cccc(-c4ccccc4)c3)cn2)c1=O [Example 11, 6-(4-Acetamido-5-oxo-2,5-dihydro-1H-pyrazol-1-yl)-N-(biphenyl-3-ylmethyl)nicotinamide] | 41 |
| CC(=O)Nc1c[nH]n(-c2ccc(C(=O)NCc3ccc(-c4ccccc4C#N)cc3)cn2)c1=O [Example 12, 6-(4-Acetamido-5-oxo-2,5-dihydro-1H-pyrazol-1-yl)-N-[(2′-cyanobiphenyl-4-ylmethyl)]nicotinamide] | 2.8 |
| CC(=O)Nc1c(C)[nH]n(-c2ccc(COCc3ccc(-c4ccccc4C#N)cc3)cn2)c1=O [Example 21, N-[2-(5-{[(2′-Cyanobiphenyl-4-yl)methoxy]methyl}pyridin-2-yl)-5-methyl-3-oxo-2,3-dihydro-1H-pyrazol-4-yl]acetamide] | 20 |
| CC(=O)Nc1c[nH]n(-c2ccc(C(=O)Nc3ccc(C(C)(C)C)cc3)cn2)c1=O [Example 2, 6-(4-Acetamido-5-oxo-2,5-dihydro-1H-pyrazol-1-yl)-N-(4-tert-butylphenyl)nicotinamide] | 36 |
| CC(=O)Nc1c(C)[nH]n(-c2ccc(COCc3ccc(C(F)(F)F)cc3)cn2)c1=O [Example 24, N-{5-Methyl-3-oxo-2-[5-({[4-(trifluoromethyl)benzyl]oxy}methyl)pyridin-2-yl]-2,3-dihydro-1H-pyrazol-4-yl}acetamide] | 22 |
| CC(=O)Nc1c(C)[nH]n(-c2ccc(C(=O)Nc3ccc(C(F)(F)F)cc3)cn2)c1=O [Example 16, 6-(4-Acetamido-3-methyl-5-oxo-2,5-dihydro-1H-pyrazol-1-yl)-N-[4-(trifluoromethyl)phenyl]nicotinamide] | 3.4 |
| CC(=O)Nc1c[nH]n(-c2cc(N3CCCCC3)ncn2)c1=O [Example 7, N-[3-Oxo-2-(6-piperidin-1-ylpyrimidin-4-yl)-2,3-dihydro-1H-pyrazol-4-yl]acetamide formate] | 29 |
| CC(=O)Nc1c[nH]n(-c2ccc(COCc3cccc(-c4ccccc4)c3)cn2)c1=O [Example 15, N-(2-{5-[(Biphenyl-3-ylmethoxy)methyl]pyridin-2-yl}-3-oxo-2,3-dihydro-1H-pyrazol-4-yl)acetamide] | 24 |
| CC(=O)Nc1c(C)[nH]n(-c2ccc(CCc3ccc(C(F)(F)F)cc3)cn2)c1=O [Example 26, N-[5-Methyl-3-oxo-2-(5-{2-[4-(trifluoromethyl)phenyl]ethyl}pyridin-2-yl)-2,3-dihydro-1H-pyrazol-4-yl]acetamide] | 22 |
| CC(=O)Nc1c(C)[nH]n(-c2ccc(C(=O)Nc3ccc(Br)cc3)cn2)c1=O [Example 18, 6-(4-Acetamido-3-methyl-5-oxo-2,5-dihydro-1H-pyrazol-1-yl)-N-(4-bromophenyl)nicotinamide] | 3.3 |
| CC(=O)Nc1c[nH]n(-c2cc(N3CCOCC3)ncn2)c1=O [Example 6, N-[2-(6-Morpholin-4-ylpyrimidin-4-yl)-3-oxo-2,3-dihydro-1H-pyrazol-4-yl]acetamide formate] | 13 |
| CC(=O)Nc1c[nH]n(-c2ccc(C(=O)Nc3ccc(C(F)(F)F)cc3)cn2)c1=O [Example 4, 6-(4-Acetamido-5-oxo-2,5-dihydro-1H-pyrazol-1-yl)-N-[4-(trifluoromethyl)phenyl]nicotinamide] | 17 |
| CC(=O)Nc1c[nH]n(-c2ccc(C(=O)Nc3cccc(C(C)(C)C)c3)cn2)c1=O [Example 3, 6-(4-Acetamido-5-oxo-2,5-dihydro-1H-pyrazol-1-yl)-N-(3-tert-butylphenyl)nicotinamide] | 17 |
